Laboratory results reported in patent US10336762B2 (priority 2017, dated 2019).
Like-named read-outs stand apart in the source and are kept apart here.

Experiments:
[1] = molecular target: IRAK4 enzyme (Homo sapiens (Human), UniProt Q9NWZ3); experiment: biochemical; type: biochemical; conditions: IRAK4 enzyme, 500 μM ATP
[2] = tested on: TNFα; experiment: cells; type: cell-based, human; conditions: LPS-stimulated human monocytes, read-out: EC50 TNF
[3] = Homo sapiens, Monocyte, TNFα content
[4] = Homo sapiens, Monocyte, TNFα by TR-FRET

Chain of IRAK4 enzyme (Q9NWZ3 whole entry): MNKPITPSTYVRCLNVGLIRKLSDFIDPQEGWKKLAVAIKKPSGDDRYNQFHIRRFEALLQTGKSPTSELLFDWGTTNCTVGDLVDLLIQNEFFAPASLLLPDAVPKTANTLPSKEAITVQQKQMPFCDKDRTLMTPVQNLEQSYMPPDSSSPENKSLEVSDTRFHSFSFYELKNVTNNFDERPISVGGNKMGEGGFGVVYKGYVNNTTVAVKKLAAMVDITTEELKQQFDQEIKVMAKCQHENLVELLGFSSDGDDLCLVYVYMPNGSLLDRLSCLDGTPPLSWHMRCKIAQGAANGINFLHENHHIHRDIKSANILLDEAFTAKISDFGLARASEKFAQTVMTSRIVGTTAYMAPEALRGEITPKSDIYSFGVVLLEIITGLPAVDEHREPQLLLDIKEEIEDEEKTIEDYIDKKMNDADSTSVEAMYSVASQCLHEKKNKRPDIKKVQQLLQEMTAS

Structure (SMILES)	IC50 ([1]; TR-FRET) [nM]	EC50 ([2]; TNFα content) [nM]	IC50 ([1]; TR-FRET (HTRF)) [nM]	EC50 [2, 3] [nM]	EC50 [2, 4] [nM]
CC(C)(O)[C@H](F)CNC(=O)c1cnc(-c2ccc3cc(C#N)cnn23)cc1NC1CC2CCC(C1)N2 (stereo partly drawn) [Example 24, 4-(((1R,3s,5S)-8-azabicyclo[3.2.1]octan-3-yl)amino)-6-(3-cyanopyrrolo[1,2-b]pyridazin-7-yl)-N-((R)-2-fluoro-3-hydroxy-3-methylbutyl)nicotinamide]	2	642	–	–	–
CC(C)(O)[C@H](F)CNC(=O)c1cnc(-c2ccc3cc(C#N)cnn23)cc1Nc1ccc(-c2nncs2)cc1 [Example 771, (R)-4-((4-(1,3,4-thiadiazol-2-yl)phenyl)amino)-6-(3-cyanopyrrolo[1,2-b]pyridazin-7-yl)-N-(2-fluoro-3-hydroxy-3-methylbutyl)nicotinamide]	–	–	< 1	37	–
[2H]C([2H])([2H])NC(=O)c1cnc(-c2ccc3cc(C#N)cnn23)cc1NC12CC(NC(C)=O)(C1)C2 [Example 497, 4-((3-acetamidobicyclo[1.1.1]pentan-1-yl)amino)-6-(3-cyanopyrrolo[1,2-b]pyridazin-7-yl)-N-(methyl-d3)nicotinamide]	–	–	1	55	–
CN1C(=O)C(C)(C)c2ccc(Nc3cc(-c4ccc5cc(C#N)cnn45)ncc3C(=O)NC[C@@H](F)C(C)(C)O)cc21 [Example 652, (R)-6-(3-cyanopyrrolo[1,2-b]pyridazin-7-yl)-N-(2-fluoro-3-hydroxy-3-methylbutyl)-4-((1,3,3-trimethyl-2-oxoindolin-6-yl)amino)nicotinamide]	–	–	2	188	–
CC(C)(O)[C@H](F)CNC(=O)c1cnc(-c2ccc3cc(C#N)cnn23)cc1Nc1ccc(-n2cccn2)nc1 [Example 770, (R)-4-((6-(1H-pyrazol-1-yl)pyridin-3-yl)amino)-6-(3-cyanopyrrolo[1,2-b]pyridazin-7-yl)-N-(2-fluoro-3-hydroxy-3-methyl-butyl)nicotinamide]	–	–	< 1	50	–
CC(C)(O)[C@H](F)CNC(=O)c1cnc(-c2ccc3cc(C#N)cnn23)cc1Nc1ccc2c(c1)CNC2=O [Example 434, (R)-6-(3-cyanopyrrolo[1,2-b]pyridazin-7-yl)-N-(2-fluoro-3-hydroxy-3-methylbutyl)-4-((1-oxoisoindolin-5-yl)amino)nicotinamide]	–	–	< 1	107	–
CC(C)(O)[C@H](F)CNC(=O)c1cnc(-c2ccc3cc(C#N)cnn23)cc1Nc1cnc(-c2ccc3cc(C#N)cnn23)nc1 [Example 966, (R)-6-(3-cyanopyrrolo[1,2-b]pyridazin-7-yl)-4-((2-(3-cyanopyrrolo[1,2-b]pyridazin-7-yl)pyrimidin-5-yl)amino)-N-(2-fluoro-3-hydroxy-3-methylbutyl) nicotinamide]	2	–	–	–	> 10000
CN(C)C(=O)c1ccc(Nc2cc(-c3ccc4cc(C#N)cnn34)ncc2C(=O)NC[C@@H](F)C(C)(C)O)cn1 [Example 575, (R)-5-((2-(3-cyano-pyrrolo[1,2-b]pyridazin-7-yl)-5-((2-fluoro-3-hydroxy-3-methylbutyl)carbamoyl)pyridin-4-yl)amino)-N,N-dimethyl-picolinamide]	–	–	2	144	–
COc1cccc(Nc2cc(-c3ccc4cc(C#N)cnn34)ncc2C(=O)NC[C@@H](F)C(C)(C)O)c1 [Example 606, (R)-6-(3-cyanopyrrolo[1,2-b]pyridazin-7-yl)-N-(2-fluoro-3-hydroxy-3-methylbutyl)-4-((3-methoxyphenyl)amino) nicotinamide]	–	–	1	33	–
COCC1(Nc2cc(-c3ccc4cc(C#N)cnn34)ncc2C(=O)NC[C@@H](F)C(C)(C)O)CC1 [Example 112, (R)-6-(3-cyano-pyrrolo[1,2-b]pyridazin-7-yl)-N-(2-fluoro-3-hydroxy-3-methylbutyl)-4-((1-(methoxymethyl)cyclopropyl)amino)nicotinanide]	4	–	–	399	–
CC(C)(O)[C@H](F)CNC(=O)c1cnc(-c2ccc3cc(C#N)cnn23)cc1Nc1ccc(Cl)nc1 [Example 965, (R)-4-((6-chloropyridin-3-yl)amino)-6-(3-cyanopyrrolo[1,2-b]pyridazin-7-yl)-N-(2-fluoro-3-hydroxy-3-methylbutyl)nicotinamide]	< 1	–	–	–	26
CNC(=O)CCNC(=O)c1cnc(-c2ccc3cc(C#N)cnn23)cc1NC12CCC(O)(CC1)CC2 [Example 803, 6-(3-cyanopyrrolo[1,2-b]pyridazin-7-yl)-4-((4-hydroxybicyclo[2.2.2]octan-1-yl)amino)-N-(3-(methylamino)-3-oxopropyl)nicotinamide]	1	–	–	–	327
CC1(C(=O)N2CCC(Nc3cc(-c4ccc5cc(C#N)cnn45)ncc3C(=O)NC[C@@H](F)C(C)(C)O)CC2)COC1 [Example 325, (R)-6-(3-cyanopyrrolo[1,2-b]pyridazin-7-yl)-N-(2-fluoro-3-hydroxy-3-methylbutyl)-4-((1-(3-methyloxetane-3-carbonyl)piperidin-4-yl)amino)nicotinamide]	3	–	–	228	–
COC(=O)N[C@H]1CC[C@H](Nc2cc(-c3ccc4cc(C#N)cnn34)ncc2C(=O)NC[C@@H](F)C(C)(C)O)C1 [Example 750, methyl ((1S,3S)-3-((2-(3-cyanopyrrolo[1,2-b]pyridazin-7-yl)-5-(((R)-2-fluoro-3-hydroxy-3-methylbutyl)carbamoyl)pyridin-4-yl)amino)cyclopentyl) carbamate]	–	–	1	198	–
CNC(=O)C1CCC(NC(=O)c2cnc(-c3ccc4cc(C#N)cnn34)cc2NC(C)C)CC1 (stereo not shown) [Example 22, 6-(3-cyanopyrrolo[1,2-b]pyridazin-7-yl)-4-(isopropyl-amino)-N-((1r,4r)-4-(methylcarbamoyl)cyclohexyl) nicotinamide]	< 1	–	–	87	–
CC(C)(O)[C@H](F)CNC(=O)c1cnc(-c2ccc3cc(C#N)cnn23)cc1NC1CCN(CC(F)(F)F)CC1 [Example 329, (R)-6-(3-cyanopyrrolo[1,2-b]pyridazin-7-yl)-N-(2-fluoro-3-hydroxy-3-methylbutyl)-4-((1-(2,2,2-trifluoroethyl)piperidin-4-yl)amino)nicotinamide]	1	–	–	62	–
COC(=O)NC12CCC(Nc3cc(-c4ccc5cc(C#N)cnn45)ncc3C(=O)NC[C@@H](F)C(C)(C)O)(CC1)C2 [Example 500, (R)-methyl (4-((2-(3-cyano-pyrrolo[1,2-b]pyridazin-7-yl)-5-((2-fluoro-3-hydroxy-3-methylbutyl)carbamoyl)pyridin-4-yl)amino)bicyclo[2.2.1]heptan-1-yl)carbamate]	–	–	1	13	–
CC(C)(O)[C@H](F)CNC(=O)c1cnc(-c2ccc3cc(C#N)cnn23)cc1N[C@H]1C[C@H](CN)C1 [Example 692, 4-(((1r,3R)-3-(amino-methyl)cyclobutyl)amino)-6-(3-cyanopyrrolo[1,2-b]pyridazin-7-yl)-N-((R)-2-fluoro-3-hydroxy-3-methylbutyl)nicotinamide]	–	–	1	315	–
CC(C)(O)[C@H](F)CNC(=O)c1cnc(-c2ccc3cc(C#N)cnn23)cc1N[C@H]1C[C@H](CNC(=O)C2CCO2)C1 (stereo partly shown) [Example 614]	–	–	2	156	–
CC(C)(O)[C@H](F)CNC(=O)c1cnc(-c2ccc3cc(C#N)cnn23)cc1Nc1cnc(N2CCNCC2)nc1 [Example 921, (R)-6-(3-cyanopyrrolo[1,2-b]pyridazin-7-yl)-N-(2-fluoro-3-hydroxy-3-methyl-butyl)-4-((2-(piperazin-1-yl)pyrimidin-5-yl)amino) nicotinamide]	< 1	–	–	–	45
CNC(=O)[C@H](F)CNC(=O)c1cnc(-c2ccc3cc(C#N)cnn23)cc1NC12CCC(O)(CC1)CC2 [Example 945, (R)-6-(3-cyanopyrrolo[1,2-b]pyridazin-7-yl)-N-(2-fluoro-3-(methylamino)-3-oxopropyl)-4-((4-hydroxybicyclo[2.2.2]octan-1-yl)amino) nicotinamide]	1	–	–	–	116
N#Cc1cnn2c(-c3cc(NC45CCC(O)(CC4)CC5)c(C(=O)NCc4ncco4)cn3)ccc2c1 [Example 621, 6-(3-cyanopyrrolo[1,2-b]pyridazin-7-yl)-4-((4-hydroxybicyclo[2.2.2]octan-1-yl)amino)-N-(oxazol-2-ylmethyl) nicotinamide]	–	–	1	98	–
N#Cc1cnn2c(-c3cc(NC45CCC(O)(CC4)CC5)c(C(=O)NC4(C(F)F)CC4)cn3)ccc2c1 [Example 951, 6-(3-cyanopyrrolo[1,2-b]pyridazin-7-yl)-N-(1-(difluoromethyl)cyclopropyl)-4-((4-hydroxybicyclo[2.2.2]octan-1-yl)amino) nicotinamide]	2	–	–	–	159
CCC(=O)N[C@H]1CC[C@H](Nc2cc(-c3ccc4cc(C#N)cnn34)ncc2C(=O)NC[C@@H](F)C(C)(C)O)CC1 [Example 299, 6-(3-cyanopyrrolo[1,2-b]pyridazin-7-yl)-N-((R)-2-fluoro-3-hydroxy-3-methyl-butyl)-4-(((1r,4R)-4-propionamidocyclohexyl)amino)nicotinamide]	1	–	–	128	–
CCOc1nccc(Nc2cc(-c3ccc4cc(C#N)cnn34)ncc2C(=O)NC[C@@H](F)C(C)(C)O)n1 [Example 848, (R)-6-(3-cyanopyrrolo[1,2-b]pyridazin-7-yl)-4-((2-ethoxypyrimidin-4-yl)amino)-N-(2-fluoro-3-hydroxy-3-methylbutyl) nicotinamide]	2	–	–	–	112
CC(C)(O)[C@H](F)CNC(=O)c1cnc(-c2ccc3cc(C#N)cnn23)cc1Nc1cccc(F)c1 [Example 384, (R)-6-(3-cyanopyrrolo[1,2-b]pyridazin-7-yl)-N-(2-fluoro-3-hydroxy-3-methylbutyl)-4-((3-fluorophenyl)amino) nicotinamide]	1	–	–	129	–
